These results are taken from patent publication US11229633B2, “Arimoclomol formulation” (Orphazyme A/S, priority 2014, dated 2022).

Values joined by “and” are separate entries in the source; they are usually repeats but may differ in a detail not shown here. Equal entries are not always repeated. “Also recorded” adds a separate entry of the source.

By IC50 is commonly meant the midpoint of a concentration-inhibition curve.

The target of data set [1] is T1, human OCT2 (Homo sapiens, UniProt O15244).
T1 construct: expressed in transfected cells; host or cells: CHO (protocol UPT-CHO-OCT2-Metf; control: parental CHO-K1)
T1 sequence (O15244 1-555): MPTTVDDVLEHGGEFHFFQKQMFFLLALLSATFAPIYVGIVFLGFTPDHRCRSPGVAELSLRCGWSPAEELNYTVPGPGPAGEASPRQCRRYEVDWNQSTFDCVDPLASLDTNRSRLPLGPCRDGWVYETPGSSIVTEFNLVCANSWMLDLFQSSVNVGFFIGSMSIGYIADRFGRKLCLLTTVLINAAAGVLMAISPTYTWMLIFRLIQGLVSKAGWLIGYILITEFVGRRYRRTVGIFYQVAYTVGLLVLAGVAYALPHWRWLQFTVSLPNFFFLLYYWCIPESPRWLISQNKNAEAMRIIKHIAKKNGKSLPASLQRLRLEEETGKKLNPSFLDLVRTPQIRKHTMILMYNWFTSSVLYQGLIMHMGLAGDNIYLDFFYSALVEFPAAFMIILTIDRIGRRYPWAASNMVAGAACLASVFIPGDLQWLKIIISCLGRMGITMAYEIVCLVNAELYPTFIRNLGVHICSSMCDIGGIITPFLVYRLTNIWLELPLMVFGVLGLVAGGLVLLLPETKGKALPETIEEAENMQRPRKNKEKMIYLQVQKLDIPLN
The data set can be described thus: Uptake transporter inhibition assay, OCT2. Format: in vitro ADME. Here is the method:
(§1) Uptake experiments were performed using CHO, MDCKII, or HEK293 cells stably expressing the respective uptake transporters.
(§2) Cells were cultured at 37±1° C. in an atmosphere of 95:5 air:CO2 and were plated onto standard 96-well tissue culture plates at the cell number described in table 4.
(§3) Before the experiment, the medium was removed and the cells were washed twice with 100 μl of HK buffer at pH 7.4 (prepared from Sigma chemicals, Sigma-Aldrich, St Louis, Mo.). Uptake experiments were carried out at 37±1° C. in 50 μl of HK buffer (pH 7.4) containing the probe substrate and the TA or vehicle control (water).
(§4) After the experiment, cells were washed twice with ice cold, 100 μl of HK buffer and lysed with 50 μl of 0.1 M NaOH (1 mM CaCl2) in 5% SDS in the case of OATP1B3). Fluo-3 transport (OATP1B3) was determined by measuring fluorescence using 485 nm and 520 nm as the excitation and emission wavelengths, respectively. Radiolabelled probe substrate transport was determined by measuring an aliquot (35 μl) from each well for liquid scintillation counting.
Uptake of the probe substrate in control cells provided background activity values for all data points. […]
The amount of translocated probe substrate was determined for each well in cpm or RFU. Relative activities were calculated from the equation: […]
(§5) In uptake transporter inhibition assays, the IC50 (μM) was calculated, where applicable. […]

The target in data set [2] is T2, human OAT3 (Homo sapiens, UniProt Q8TCC7).
T2 construct: expressed in transfected cells; host or cells: MDCKII (protocol UPT-MDCKII-OAT3-E3S; control: parental MDCKII)
T2 sequence (Q8TCC7 1-542): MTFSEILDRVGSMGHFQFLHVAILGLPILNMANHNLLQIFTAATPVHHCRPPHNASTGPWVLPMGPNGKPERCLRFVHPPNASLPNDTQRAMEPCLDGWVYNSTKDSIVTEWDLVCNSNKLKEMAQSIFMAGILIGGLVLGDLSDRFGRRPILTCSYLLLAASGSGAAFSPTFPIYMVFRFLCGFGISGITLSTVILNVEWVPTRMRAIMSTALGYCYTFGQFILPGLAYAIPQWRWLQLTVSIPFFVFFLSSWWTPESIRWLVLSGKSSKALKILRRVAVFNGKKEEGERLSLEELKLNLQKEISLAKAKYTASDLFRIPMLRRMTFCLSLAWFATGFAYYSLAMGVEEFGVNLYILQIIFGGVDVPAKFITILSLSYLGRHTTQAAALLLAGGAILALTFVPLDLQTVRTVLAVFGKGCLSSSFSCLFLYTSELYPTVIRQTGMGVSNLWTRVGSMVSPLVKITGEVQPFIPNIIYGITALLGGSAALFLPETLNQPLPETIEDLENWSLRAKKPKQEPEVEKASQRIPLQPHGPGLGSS
In words: Uptake transporter inhibition assay, OAT3. The data set is classed as in vitro ADME. Further details: key to maximum inhibition: NIO: No interaction observed. The note with it: for maximum inhibition: 0.3-300 μM. The procedure: as §1, §2, §3, §4
Uptake of the probe substrate in control cells provided background activity values for all data points. Incubation without TA or reference inhibitor (solvent only) provided 100% activity values. A reference inhibitor served as positive control for inhibition.
The amount of translocated probe substrate was determined for each well in cpm or RFU. Relative activities were calculated from the equation:
[formula] A: amount of translocated substrate in the presence of TA in transfected cells B: amount of translocated substrate in the presence of TA in control cells C: amount of translocated substrate in the presence of solvent in transfected cells D: amount of translocated substrate in the presence of solvent in control cells Calculation of Fold Accumulation Values
as §5

Data set [3] is described as follows: Stability at conventional extrusion temperature. The data set is classed as physicochemical. The note with it: 100-200° C.
Data set [4] can be described thus: Physical properties of the drug substance. The data set is classed as physicochemical.

As for `[O-][n+]1cccc(C(Cl)=NOCC(O)CN2CCCCC2)c1` (stereo not drawn) [Arimoclomol, N-[2-hydroxy-3-(1-piperidinyl)-propoxy]-pyridine-1-oxide-3-carboximidoyl chloride], the “Inhibitor of the OCT2 transporter (in words)” value in data set [1] was “inhibitor”. Besides, in data set [1] (OCT2-mediated metformin (10 μM) uptake, CHO cells), the IC50 is 10 µM and 9.72 µM. In addition, the maximum inhibition result in data set [2] (Table 2) and in data set [2] (Table 5) was “NIO” each time. The “Influence on OAT3-mediated probe substrate accumulation (in words)” value in data set [2] (applied concentrations) was “did not influence; also recorded: not an inhibitor”. Moreover, the “Stability at conventional extrusion temperature” value in data set [3] was “not stable”. The “Carr's Index” value in data set [4] (drug substance) worked out at 44.4%. Further, the bulk density in data set [4] (drug substance) amounted to 0.214 g/cm3. The tapped density in data set [4] (following 250 taps) was 0.386 g/cm3.
